Reference: patent US9328083B2, “2-aminated methylene or 2-esterified methylene tanshinone derivatives, and preparation method and application thereof” (HANGZHOU BENSHENG PHARMACEUTICAL CO., LTD., priority 2011, dated 2016)
Converted amounts (≈) assume the structure as drawn.

Key:
[1] = system: Jurkat (acute lymphoblastic leukemia, ALL); assay: MTT growth inhibition of leukemia cells, 72 h; format: cell-based, human; details: Homo sapiens, 72 h; for IC50: read-out: IC50; for IC90: read-out: IC90
How it was run: (§1)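 Readout is MTT viable-cell determination after 72 h exposure (37° C, 5% CO2) to compounds added at several concentrations one day after plating 6000 cells/well. Medium RPMI-1640 plus 10% fetal bovine serum; working solutions made from a 10 mg/mL DMSO stock.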

[2] = system: NB4 (acute promyelocytic leukemia, AML); assay: MTT growth inhibition of leukemia cells, 72 h; format: cell-based, human; details: Homo sapiens, NB4, 72 h; for IC50: read-out: IC50; for IC90: read-out: IC90
How it was run: as §1

[3] = system: H9 (acute lymphoblastic leukemia, ALL); assay: MTT growth inhibition of leukemia cells, 72 h; format: cell-based, human; details: Homo sapiens, H9, 72 h; for IC50: read-out: IC50; for IC90: read-out: IC90
How it was run: as §1

[4] = system: K562/adr (drug-resistant, chronic myeloid leukemia, CML); assay: MTT growth inhibition of leukemia cells, 72 h; format: cell-based, human; details: Homo sapiens, K562/Adr; for IC50: read-out: IC50; for IC90: read-out: IC90
How it was run: as §1

[5] = system: Kasumi-1 (acute myeloid leukemia M2 type, AML-M2); assay: MTT growth inhibition of leukemia cells, 72 h; format: cell-based, human; details: Homo sapiens, Kasumi-1, 72 h; for IC50: read-out: IC50; for IC90: read-out: IC90
How it was run: as §1

[6] = system: MGC 803 (human gastric cancer cell); assay: MTT growth inhibition of human solid tumor cells, 72 h; format: cell-based; details: Homo sapiens, MGC-803, 72 h; for IC50: read-out: IC50; for IC90: read-out: IC90
How it was run: (§2)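 We plate 4000 cells into each well, culture them 24 h (37° C, 5% CO2, DMEM High Glucose plus 10% fetal bovine serum), add compound dilutions, mix uniformly and measure viable cell concentration.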

[7] = system: A549 (human lung cancer); assay: as above; format: cell-based; details: Homo sapiens, A549, 72 h; for IC50: read-out: IC50; for IC90: read-out: IC90
How it was run: as §2

[8] = system: Hep G2 (human liver cancer cell); assay: as above; format: cell-based; details: Homo sapiens, HepG2, Hep G2, 72 h; for IC50: read-out: IC50; for IC90: read-out: IC90
How it was run: as §2

[9] = system: SK-OV-3 (ovarian cancer cell); assay: as above; format: cell-based; details: Homo sapiens, SK-OV-3, 72 h; for IC50: read-out: IC50; for IC90: read-out: IC90
How it was run: as §2

[10] = system: PANC-1 (pancreatic cancer); assay: as above; format: cell-based; details: Homo sapiens, PANC-1, 72 h; for IC50: read-out: IC50; for IC90: read-out: IC90
How it was run: as §2

[11] = system: CNE (nasopharyngeal carcinoma cell); assay: as above; format: cell-based; details: Homo sapiens; for IC50: read-out: IC50; for IC90: read-out: IC90
How it was run: as §2

[12] = system: U87 MG (malignant glioma cell); assay: as above; format: cell-based; details: Homo sapiens, U-87 MG, U87-MG, 72 h; for IC50: read-out: IC50; for IC90: read-out: IC90
How it was run: as §2

[13] = system: Hep-2 (laryngeal carcinoma); assay: as above; format: cell-based; details: Homo sapiens, HEp-2, 72 h; for IC50: read-out: IC50; for IC90: read-out: IC90
How it was run: as §2

[14] = system: Hela (human cervical cancer cell); assay: as above; format: cell-based; details: Homo sapiens, HeLa, 72 h; for IC50: read-out: IC50; for IC90: read-out: IC90
How it was run: as §2

[15] = system: Becap37 (human breast cancer cell); assay: as above; format: cell-based; details: Homo sapiens, Becap-37, 72 h; for IC50: read-out: IC50; for IC90: read-out: IC90
How it was run: as §2

[16] = system: MG63 (osteosarcoma); assay: as above; format: cell-based; details: Homo sapiens, MG-63, 72 h; for IC50: read-out: IC50; for IC90: read-out: IC90
How it was run: as §2

[17] = system: PC-3 (prostate cancer); assay: as above; format: cell-based; details: Homo sapiens, PC-3, 72 h; for IC50: read-out: IC50; for IC90: read-out: IC90
How it was run: as §2

[18] = system: CaES-17 (esophageal cancer cell); assay: as above; format: cell-based; details: Homo sapiens, CaEs17, CaEs-17, 72 h; for IC50: read-out: IC50; for IC90: read-out: IC90
How it was run: as §2

[19] = system: RKO (human colon adenocarcinoma cell); assay: as above; format: cell-based; details: Homo sapiens; for IC50: read-out: IC50; for IC90: read-out: IC90
How it was run: as §2

[20] = system: RPMI8226 (multiple myeloma); assay: MTT growth inhibition of multiple myeloma cells, 72 h; format: cell-based, human; details: Homo sapiens, RPMI 8226, 72 h; for IC50: read-out: IC50; for IC90: read-out: IC90
How it was run: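 Viability read by MTT after 72 h at 37° C, 5% CO2: compounds from a 10 mg/mL DMSO stock were diluted in medium and added at several concentrations to 6000 RPMI8226 cells per well in 1640 medium plus 10% FBS.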

Row | Structure (SMILES) | IC50 [1] [µg/mL] | IC90 [1] [µg/mL] | IC50 [2] [µg/mL] | IC90 [2] [µg/mL] | IC50 [3] [µg/mL] | IC90 [3] [µg/mL] | IC50 [4] [µg/mL] | IC90 [4] [µg/mL] | IC50 [5] [µg/mL] | IC90 [5] [µg/mL] | IC50 [6] [µg/mL] | IC90 [6] [µg/mL] | IC50 [7] [µg/mL] | IC90 [7] [µg/mL] | IC50 [8] [µg/mL] | IC90 [8] [µg/mL] | IC50 [9] [µg/mL] | IC90 [9] [µg/mL] | IC50 [10] [µg/mL] | IC90 [10] [µg/mL] | further results
1 | Cc1c(CNCC2CC2)oc2c1C(=O)C(=O)c1c-2ccc2c(C)cccc12 [BS-TA-B07] | 3.11 (≈ 8.65 µM) | 9.52 (≈ 26.5 µM) | 1.35 (≈ 3.76 µM) | 3.74 (≈ 10.4 µM) | 2.9 (≈ 8.07 µM) | 7.5 (≈ 20.9 µM) | 3.22 (≈ 8.96 µM) | 6.38 (≈ 17.8 µM) | 1.07 (≈ 2.98 µM) | 3.86 (≈ 10.7 µM) | 6.9 (≈ 19.2 µM) | 17.1 (≈ 47.7 µM) | 5.98 (≈ 16.6 µM) | 21.9 (≈ 61.1 µM) | 8.46 (≈ 23.5 µM) | > 16 | > 16 | > 16 | 1.33 (≈ 3.7 µM) | 8.21 (≈ 22.8 µM) | IC50 [11]: 9 µg/mL (≈ 25 µM); IC90 [11]: > 16 µg/mL; IC50 [12]: 10.1 µg/mL (≈ 28 µM); IC90 [12]: 21.2 µg/mL (≈ 59 µM); IC50 [13]: 9.45 µg/mL (≈ 26.3 µM); IC90 [13]: > 16 µg/mL; IC50 [14]: 6.86 µg/mL (≈ 19.1 µM); IC90 [14]: 18.5 µg/mL (≈ 51.4 µM); IC50 [15]: 5.23 µg/mL (≈ 14.6 µM); IC90 [15]: 14.3 µg/mL (≈ 39.9 µM); IC50 [16]: 8.14 µg/mL (≈ 22.6 µM); IC90 [16]: > 16 µg/mL; IC50 [17]: 7.05 µg/mL (≈ 19.6 µM); IC90 [17]: 16 µg/mL (≈ 44.5 µM); IC50 [18]: 9.16 µg/mL (≈ 25.5 µM); IC90 [18]: 19.7 µg/mL (≈ 54.8 µM); IC50 [19]: 0.93 µg/mL (≈ 2.59 µM); IC90 [19]: 17 µg/mL (≈ 47.4 µM); IC50 [20]: 3.46 µg/mL (≈ 9.63 µM); IC90 [20]: 10.2 µg/mL (≈ 28.3 µM)
2 | CCCCNCc1oc2c(c1C)C(=O)C(=O)c1c-2ccc2c(C)cccc12 [BS-TA-B10] | > 16 | > 16 | 5.79 (≈ 16 µM) | 15.4 (≈ 42.7 µM) | 6 (≈ 16.6 µM) | > 16 | 0.76 (≈ 2.1 µM) | 1.8 (≈ 4.98 µM) | 0.4 (≈ 1.11 µM) | 0.92 (≈ 2.55 µM) | > 16 | > 16 | 1.28 (≈ 3.54 µM) | 6 (≈ 16.6 µM) | > 16 | > 16 | > 16 | > 16 | 0.88 (≈ 2.43 µM) | 5.82 (≈ 16.1 µM) | IC50 [11]: > 16 µg/mL; IC90 [11]: > 16 µg/mL; IC50 [12]: > 16 µg/mL; IC90 [12]: > 16 µg/mL; IC50 [13]: 15.8 µg/mL (≈ 43.6 µM); IC90 [13]: > 16 µg/mL; IC50 [14]: 15.6 µg/mL (≈ 43 µM); IC90 [14]: > 16 µg/mL; IC50 [15]: > 16 µg/mL; IC90 [15]: > 16 µg/mL; IC50 [16]: > 16 µg/mL; IC90 [16]: > 16 µg/mL; IC50 [17]: > 16 µg/mL; IC90 [17]: > 16 µg/mL; IC50 [18]: > 16 µg/mL; IC90 [18]: > 16 µg/mL; IC50 [19]: 5.47 µg/mL (≈ 15.1 µM); IC90 [19]: > 16 µg/mL; IC50 [20]: 15.8 µg/mL (≈ 43.8 µM); IC90 [20]: > 16 µg/mL
